Results reported in ChEMBL document CHEMBL4616618, “Design and synthesis of a folate-receptor targeted diazepine-ring-opened pyrrolobenzodiazepine prodrug conjugate” (Bioorg Med Chem Lett, 2020).
The source made the active and inactive calls. The calls are words filed in the database; no cut-off is given here.

Assays:
[1] = Antagonist activity at folate receptor in human KB cells after 2 hrs; format: cell-based
[2] = Toxicity in mouse xenografted with FR-positive human KB cells assessed as body weight loss at 2 umol/kg administered as single dose for 1 week; format: cell-based; details: in vivo, 168 h
[3] = tested on: KB; test: Antitumor activity against FR-positive human KB cells xenografted in nu/nu mouse assessed as reduction in tumor growth at 2 umol/kg administered as single dose for 1 week; format: functional, cell-based
[4] = Antagonist activity at folate receptor in human KB cells after 2 hrs in presence of 100 uM folic acid; format: cell-based
[5] = Toxicity in mouse xenografted with FR-positive human KB cells assessed as tissue degeneration at 300 nmol/kg administered as single dose for 1 week; format: cell-based; details: in vivo, 168 h
[6] = Toxicity in mouse xenografted with FR-positive human KB cells assessed as body weight loss at 300 nmol/kg administered as single dose and measured up to 96 days post tumor implantation; format: cell-based; details: in vivo, 2304 h
[7] = tested on: KB; test: Antitumor activity against FR-positive human KB cells xenografted in nu/nu mouse at 300 nmol/kg administered as single dose for 1 week; format: functional, cell-based

SMILES	IC50 [1] [nM]	Activity [2]	Activity [3]	IC50 [4] [nM]	Activity [5]	Activity [6]	Activity [7]
C=C1C[C@@H](C2OCCN2C(=O)OCCSSC[C@@H](NC(=O)[C@H](CCC(=O)NC[C@H](O)[C@@H](O)[C@H](O)[C@H](O)CO)NC(=O)[C@@H](CCC(=O)O)NC(=O)[C@H](CCC(=O)NC[C@H](O)[C@@H](O)[C@H](O)[C@H](O)CO)NC(=O)[C@@H](CCC(=O)O)NC(=O)[C@H](CCC(=O)NC[C@H](O)[C@@H](O)[C@H](O)[C@H](O)CO)NC(=O)CC[C@H](NC(=O)c2ccc(NCc3cnc4nc(N)[nH]c(=O)c4n3)cc2)C(=O)O)C(=O)O)N(C(=O)c2cc(OC)c(OCCCCCOc3ccc(-c4nc5ccc(-c6nc7cc(N8CCN(C)CC8)ccc7[nH]6)cc5[nH]4)cc3)cc2N)C1 (some centres undefined)	0.658	Toxic	Active	84.3			
C=C1C[C@H]2C(=O)Nc3cc(OCCCCCOc4cc(N)c(C(=O)N5CC(=C)C[C@H]5C5OCCN5C(=O)OCCSSC[C@H](NC(=O)[C@H](CC(=O)O)NC(=O)[C@H](CC(=O)O)NC(=O)[C@H](CCCNC(=N)N)NC(=O)[C@H](CC(=O)O)NC(=O)CC[C@H](NC(=O)c5ccc(NCc6cnc7nc(N)[nH]c(=O)c7n6)cc5)C(=O)O)C(=O)O)cc4OC)c(OC)cc3C(=O)N2C1 (some centres undefined)	1.12			696			
C=C1C[C@@H](C2OCCN2C(=O)OCCSSC[C@@H](NC(=O)[C@H](CCC(=O)NC[C@H](O)[C@@H](O)[C@H](O)[C@H](O)CO)NC(=O)[C@@H](CCC(=O)O)NC(=O)[C@H](CCC(=O)NC[C@H](O)[C@@H](O)[C@H](O)[C@H](O)CO)NC(=O)[C@@H](CCC(=O)O)NC(=O)[C@H](CCC(=O)NC[C@H](O)[C@@H](O)[C@H](O)[C@H](O)CO)NC(=O)CC[C@H](NC(=O)c2ccc(NCc3cnc4nc(N)[nH]c(=O)c4n3)cc2)C(=O)O)C(=O)O)N(C(=O)c2cc(OC)c(OCCCCCOc3cc(N)c(C(=O)N4CC(=C)C[C@H]4C4OCCN4C(=O)OCCSSc4ccccn4)cc3OC)cc2N)C1 (some centres undefined)	1.31		Active	184			
C=C1C[C@H]2C=Nc3cc(OCCCCCOc4cc(N)c(C(=O)N5CC(=C)C[C@H]5C5OCCN5C(=O)OCC(C)(C)SSCCC(=O)NCCNC(=O)CCOCCOCCOCCOCCNC(=O)CCN5C(=O)CC(SC[C@H](NC(=O)[C@H](CC(=O)O)NC(=O)[C@H](CC(=O)O)NC(=O)[C@H](CCCNC(=N)N)NC(=O)[C@H](CC(=O)O)NC(=O)CC[C@H](NC(=O)c6ccc(NCc7cnc8nc(N)[nH]c(=O)c8n7)cc6)C(=O)O)C(=O)O)C5=O)cc4OC)c(OC)cc3C(=O)N2C1 (some centres undefined)	0.0522			3.78	Toxic	Toxic	Active
